# Test: in vitro
# Conditions: human, hela cells, % viability
row,SMILES,"viability at 28.5 h, 10 µM"
1,COCCN1C(=O)/C(=C2/C(=O)N(CC(=O)Nc3ccccc3)c3ccccc32)SC1=S [CBK264489],91.3%
2,O=C1CC(c2ccccc2)CC(NCc2ccccc2)=C1C(=S)Nc1ccccc1 (centres unmarked) [CBK264491],104%
3,CC1(C)CC(=O)C(C(=S)Nc2ccccc2)=C(NCc2ccccc2)C1 [CBK264498],91.6%
4,O=C(CC1S/C(=N/N=C/c2ccc(-c3ccc(Br)cc3)o2)NC1=O)Nc1ccccc1 (centres unmarked) [CBK264499],106%
5,Cc1ccc(NC(=O)CN2C(=O)S/C(=C\c3ccc4c(c3)n(C)c(=O)n4C)C2=O)cc1 [CBK264501],112%
6,Cc1ccc(C2C(C(=O)c3ccc(Cl)cc3)=C(O)C(=O)N2CCCN2CCOCC2)o1 (centres unmarked) [CBK264514],92.6%
7,O=C(CC1S/C(=N/N=C/c2ccccc2C(=O)O)NC1=O)Nc1ccccc1 (centres unmarked) [CBK264515],99.7%
8,COc1ccc(-c2ccc(/C=N/N=C3\NC(=O)C(CC(=O)O)S3)o2)c([N+](=O)[O-])c1 (centres unmarked) [CBK264516],102%
9,O=C(Oc1c(Cl)cc(Cl)c2cccnc12)c1cc(S(=O)(=O)N2CCCCC2)ccc1Cl [CBK264518],100%
10,CN(C)Cc1c(O)ccc2c(=O)c(Oc3ccc(-c4ccccc4)cc3)c(C(F)(F)F)oc12 [CBK264519],107%
11,CN(C)S(=O)(=O)c1ccc(C(=O)C2=C(O)C(=O)N(CCN3CCOCC3)C2c2ccco2)cc1 (centres unmarked) [CBK264521],93.4%
12,O=C(C1=C(O)C(=O)N(Cc2cccnc2)C1c1cccnc1)c1ccccc1 (centres unmarked) [CBK264522],99.5%
13,CCCCOC(=O)CCc1nc2ccccc2nc1O [CBK264523],97.3%
14,NCCCNC(=O)c1ccc(/C=N/O)nc1 [CBK264524],110%
15,CCCOc1ccc(-c2nn(-c3ccccc3)cc2/C=C2\SC(=S)N(CC(=O)O)C2=O)cc1 [CBK264525],111%
16,O=C(C1=C(O)C(=O)N(CCCn2ccnc2)C1c1ccncc1)c1ccccc1 (centres unmarked) [CBK264527],91.6%
17,O=C(C1=C(O)C(=O)N(CCCN2CCOCC2)C1c1cccnc1)c1ccco1 (centres unmarked) [CBK264528],102%
18,O=C(CC1S/C(=N/N=C/c2cn(Cc3ccccc3)c3ccccc23)NC1=O)Nc1ccccc1 (centres unmarked) [CBK264529],84%
19,CN(C)CCCN1C(=O)C(O)=C(C(=O)c2ccc(F)cc2)C1c1cccnc1 (centres unmarked) [CBK264531],107%
20,N#Cc1c(NC(=O)c2cc(S(=O)(=O)N3CCOCC3)cs2)sc2c1CCCC2 [CBK264532],102%

row,SMILES,"viability at 28.5 h, 10 µM"
1,Cc1ccc(C(=O)NCC(=O)O)cc1S(=O)(=O)N1CCOCC1 [CBK264534],90.9%
2,COC(=O)CCN(C)CCC(=O)OC [CBK264539C],95.4%
3,COc1ccc(C2C(C(=O)c3ccco3)=C(O)C(=O)N2CCN2CCOCC2)cc1OC (centres unmarked) [CBK264544],98.8%
4,O=C(Oc1cccc2cccnc12)c1cccc(S(=O)(=O)Oc2cccc3cccnc23)c1 [CBK264545],58.4%
5,CC(C)c1ccc(C2C(C(=O)c3ccco3)=C(O)C(=O)N2CCCN(C)C)cc1 (centres unmarked) [CBK264549],94.8%
6,O=C(NCCc1c[nH]c2ccccc12)c1cc2c(ccc3ccccc32)oc1=O [CBK264550],91.5%
7,O=C(Nc1sc2c(c1C(=O)O)CCCC2)c1cc2ccccc2o1 [CBK264551],91%
8,O=C(O)CCCN1C(=O)/C(=C\c2ccccn2)SC1=S [CBK264552],92.4%
9,O=C(Nc1ccccc1O)c1cc(S(=O)(=O)N2CCCCCC2)ccc1Cl [CBK264554],89.1%
10,O=C(NCCCN1CCOCC1)c1ccncc1 [CBK264561F],110%
11,COc1ccc(C2=NN(c3ccc([N+](=O)[O-])cc3)C(=O)/C2=C\NCCN2CCOCC2)cc1 [CBK264563],114%
12,O=C(C1=C(O)C(=O)N(CCCN2CCOCC2)C1c1ccc(Cl)c(Cl)c1)c1cccs1 (centres unmarked) [CBK264565],104%
13,c1cncc(-c2nc(NCCN3CCOCC3)c3ccccc3n2)c1 [CBK264566C],91%
14,O=C(Nc1cccnc1)c1cc(S(=O)(=O)N2CCCCC2)c(Cl)cc1Cl [CBK264567],91.9%
15,CC(=O)C1=C(O)C(=O)N(CCN2CCOCC2)C1c1cccc([N+](=O)[O-])c1 (centres unmarked) [CBK264568],98%
16,O=C(COc1ccc(C2CCCCC2)cc1)Nc1cccc(-c2nc3ncccc3o2)c1 [CBK264569],90.9%
17,O=C(C1=C(O)C(=O)N(CCN2CCOCC2)C1c1cccnc1)c1ccco1 (centres unmarked) [CBK264570],97.4%
18,O=C(C1=C(O)C(=O)N(CCCn2ccnc2)C1c1cccc([N+](=O)[O-])c1)c1ccc(F)cc1 (centres unmarked) [CBK264571],97.8%
19,N#Cc1nc(-c2ccccc2)oc1NCCN1CCCCC1 [CBK264573],93.5%
20,COc1cc(/C=c2\sc3nc(-c4ccccc4OC(C)=O)nn3c2=O)ccc1OCc1ccccc1 [CBK264575],99.2%

row,SMILES,"viability at 28.5 h, 10 µM"
1,N#Cc1c(NC(=O)c2cc(S(=O)(=O)N3CCCCC3)c(Cl)cc2Cl)sc2c1CCCC2 [CBK264579],104%
2,O=[N+]([O-])c1ccc(CSc2nnc(-c3cccnc3)n2Cc2ccco2)cc1 [CBK264580],106%
3,O=C(O)CC(C(=O)Nc1ccc(Cl)cc1)C1CCCO1 (centres unmarked) [CBK264583],94.2%
4,Cc1sc2nc(SCc3cc(O)[nH]n3)nc(N)c2c1C [CBK264585],88.6%
5,Cc1cccc(NC(=O)CN2C(=O)S/C(=C\c3cc(C)n(-c4ccc(N(C)C)cc4)c3C)C2=O)c1 [CBK264586],96.9%
6,Cc1ccc(S(N)(=O)=O)cc1C(=O)OCC(=O)c1ccccc1 [CBK264588],113%
7,Cc1ccc(S(=O)(=O)CC(CN2CCOCC2)N2CCOCC2)cc1 (centres unmarked) [CBK264590],99.1%
8,O=C(O)CC1S/C(=N/N=C/c2ccc(-c3ccc(Cl)cc3)o2)NC1=O (centres unmarked) [CBK264595],125%
9,COc1ccc([N+](=O)[O-])cc1COc1ccc2ccc(=O)oc2c1 [CBK264597],106%
10,CC1(C)C(=O)OC(C(=O)c2ccc(Br)cc2)C(C)(C)C1=O (centres unmarked) [CBK264600],90.3%
11,O=C(O)COc1cccc(NC(=O)c2ccccc2)c1 [CBK264602],88.3%
12,CCOc1ccc(C(=O)C2=C(O)C(=O)N(CCN(C)C)C2c2ccc(N(C)C)cc2)c(C)c1 (centres unmarked) [CBK264603],110%
13,CCC12CN3CC(CC)(CN(C1)C3c1ccccc1[N+](=O)[O-])C2=O (centres unmarked) [CBK264604],116%
14,COc1cc(C2C(C(=O)c3cccs3)=C(O)C(=O)N2Cc2cccnc2)ccc1O (centres unmarked) [CBK264605],110%
15,CC(CN1CCOCC1)OC(=O)c1ccco1 (centres unmarked) [CBK264606C],92.9%
16,O=C(Nc1sc2c(c1C(=O)NCC1CCCO1)CCCC2)c1ccccc1[N+](=O)[O-] (centres unmarked) [CBK264608],102%
17,O=[N+]([O-])c1cccc(CN2CCC(N3CCN(Cc4ccccc4)CC3)CC2)c1 [CBK264609G],93.5%
18,O=C(/C=C/c1cccc([N+](=O)[O-])c1)Nc1ccc(Cl)c(-c2nc3ccccc3o2)c1 [CBK264610],102%
19,COc1cc(C(=O)ON=C(N)Cc2cccc3ccccc23)cc(OC)c1OC [CBK264611],95.9%

# Source: PMC12040169 (PLOS Biology, 2025)
